In the NIST ThermoML archive (doi:10.1016/j.jct.2013.01.005):
Numbers after ± are expanded uncertainties.

Assay: activity coefficient (dimensionless); of the first substance listed, at infinite dilution; xn = mol fraction of the nth substance listed
Conditions: 101 kPa, Liquid, Chromatography, x1 = 0

Compound	activity coefficient (318.15 K)	activity coefficient (328.15 K)	activity coefficient (338.15 K)	activity coefficient (348.15 K)	activity coefficient (358.15 K)	activity coefficient (308.15 K)
CCCCC(C)=O [2-hexanone] + CCCCC[N+]1(C)CCCCC1.O=S(=O)([N-]S(=O)(=O)C(F)(F)F)C(F)(F)F	0.761 ± 0.05	0.779 ± 0.051	0.792 ± 0.052	0.822 ± 0.053	0.84 ± 0.054	–
CCC(C)(C)OC [2-methoxy-2-methylbutane] + CCCCCC[N+]1(C)CCCCC1.O=S(=O)([N-]S(=O)(=O)C(F)(F)F)C(F)(F)F	2.14 ± 0.15	2.18 ± 0.15	2.2 ± 0.15	2.22 ± 0.15	2.25 ± 0.15	2.11 ± 0.14
CCC(C)(C)OC [2-methoxy-2-methylbutane] + CCCCC[N+]1(C)CCCCC1.O=S(=O)([N-]S(=O)(=O)C(F)(F)F)C(F)(F)F	2.47 ± 0.17	2.5 ± 0.17	2.53 ± 0.17	2.57 ± 0.17	2.6 ± 0.18	2.44 ± 0.17
COC(C)(C)C [2-methoxy-2-methylpropane] + CCCCCC[N+]1(C)CCCCC1.O=S(=O)([N-]S(=O)(=O)C(F)(F)F)C(F)(F)F	1.63 ± 0.11	1.66 ± 0.11	1.7 ± 0.11	1.72 ± 0.12	1.76 ± 0.12	1.59 ± 0.11
COC(C)(C)C [2-methoxy-2-methylpropane] + CCCCC[N+]1(C)CCCCC1.O=S(=O)([N-]S(=O)(=O)C(F)(F)F)C(F)(F)F	1.85 ± 0.12	1.86 ± 0.13	1.89 ± 0.13	1.94 ± 0.13	1.98 ± 0.13	1.81 ± 0.12
CC(C)=O [acetone] + CCCCCC[N+]1(C)CCCCC1.O=S(=O)([N-]S(=O)(=O)C(F)(F)F)C(F)(F)F	0.429 ± 0.035	0.436 ± 0.035	0.444 ± 0.036	0.455 ± 0.036	0.46 ± 0.036	0.421 ± 0.035
CC(C)=O [acetone] + CCCCC[N+]1(C)CCCCC1.O=S(=O)([N-]S(=O)(=O)C(F)(F)F)C(F)(F)F	0.426 ± 0.035	0.435 ± 0.035	0.441 ± 0.035	0.456 ± 0.036	0.466 ± 0.036	0.398 ± 0.034
c1ccccc1 [benzene] + CCCCCC[N+]1(C)CCCCC1.O=S(=O)([N-]S(=O)(=O)C(F)(F)F)C(F)(F)F	0.687 ± 0.046	0.695 ± 0.047	0.71 ± 0.047	0.722 ± 0.048	0.73 ± 0.048	0.669 ± 0.045
c1ccccc1 [benzene] + CCCCC[N+]1(C)CCCCC1.O=S(=O)([N-]S(=O)(=O)C(F)(F)F)C(F)(F)F	0.703 ± 0.047	0.712 ± 0.047	0.721 ± 0.048	0.744 ± 0.049	0.753 ± 0.05	0.696 ± 0.047
CCCCO [butan-1-ol] + CCCCCC[N+]1(C)CCCCC1.O=S(=O)([N-]S(=O)(=O)C(F)(F)F)C(F)(F)F	2.13 ± 0.14	1.93 ± 0.13	1.76 ± 0.12	1.64 ± 0.11	1.52 ± 0.1	2.4 ± 0.16
CCCCO [butan-1-ol] + CCCCC[N+]1(C)CCCCC1.O=S(=O)([N-]S(=O)(=O)C(F)(F)F)C(F)(F)F	2.16 ± 0.15	1.98 ± 0.13	1.82 ± 0.12	1.71 ± 0.11	1.57 ± 0.1	2.3 ± 0.16
C1CCCCCC1 [cycloheptane] + CCCCCC[N+]1(C)CCCCC1.O=S(=O)([N-]S(=O)(=O)C(F)(F)F)C(F)(F)F	6.01 ± 0.41	5.77 ± 0.39	5.52 ± 0.38	5.32 ± 0.36	5.08 ± 0.35	6.23 ± 0.42
C1CCCCCC1 [cycloheptane] + CCCCC[N+]1(C)CCCCC1.O=S(=O)([N-]S(=O)(=O)C(F)(F)F)C(F)(F)F	7.49 ± 0.51	7.13 ± 0.49	6.82 ± 0.46	6.54 ± 0.45	6.26 ± 0.43	7.97 ± 0.54
C1CCCCC1 [cyclohexane] + CCCCCC[N+]1(C)CCCCC1.O=S(=O)([N-]S(=O)(=O)C(F)(F)F)C(F)(F)F	4.8 ± 0.33	4.6 ± 0.31	4.43 ± 0.3	4.28 ± 0.29	4.06 ± 0.28	4.99 ± 0.34
C1CCCCC1 [cyclohexane] + CCCCC[N+]1(C)CCCCC1.O=S(=O)([N-]S(=O)(=O)C(F)(F)F)C(F)(F)F	5.95 ± 0.41	5.64 ± 0.38	5.42 ± 0.37	5.13 ± 0.35	4.99 ± 0.34	6.4 ± 0.44
C1=CCCCC1 [cyclohexene] + CCCCCC[N+]1(C)CCCCC1.O=S(=O)([N-]S(=O)(=O)C(F)(F)F)C(F)(F)F	3 ± 0.2	2.94 ± 0.2	2.88 ± 0.2	2.81 ± 0.19	2.75 ± 0.19	3.07 ± 0.21
C1=CCCCC1 [cyclohexene] + CCCCC[N+]1(C)CCCCC1.O=S(=O)([N-]S(=O)(=O)C(F)(F)F)C(F)(F)F	3.63 ± 0.25	3.53 ± 0.24	3.39 ± 0.23	3.3 ± 0.22	3.21 ± 0.22	3.73 ± 0.25
C1CCCCCCC1 [cyclooctane] + CCCCCC[N+]1(C)CCCCC1.O=S(=O)([N-]S(=O)(=O)C(F)(F)F)C(F)(F)F	7.36 ± 0.5	7.15 ± 0.49	6.87 ± 0.47	6.75 ± 0.46	6.53 ± 0.45	7.57 ± 0.52
C1CCCCCCC1 [cyclooctane] + CCCCC[N+]1(C)CCCCC1.O=S(=O)([N-]S(=O)(=O)C(F)(F)F)C(F)(F)F	9.58 ± 0.65	9.06 ± 0.62	8.6 ± 0.59	8.24 ± 0.56	7.8 ± 0.53	10.1 ± 0.7
C1CCCC1 [cyclopentane] + CCCCCC[N+]1(C)CCCCC1.O=S(=O)([N-]S(=O)(=O)C(F)(F)F)C(F)(F)F	3.59 ± 0.24	3.43 ± 0.23	3.34 ± 0.23	3.24 ± 0.22	3.12 ± 0.21	3.72 ± 0.25
C1CCCC1 [cyclopentane] + CCCCC[N+]1(C)CCCCC1.O=S(=O)([N-]S(=O)(=O)C(F)(F)F)C(F)(F)F	4.5 ± 0.31	4.24 ± 0.29	3.98 ± 0.27	3.82 ± 0.26	3.72 ± 0.25	4.72 ± 0.32
CCCCCCCCCC [decane] + CCCCCC[N+]1(C)CCCCC1.O=S(=O)([N-]S(=O)(=O)C(F)(F)F)C(F)(F)F	22.2 ± 1.5	21.1 ± 1.4	20 ± 1.4	19.1 ± 1.3	18.3 ± 1.3	23.5 ± 1.6
CCCCCCCCCC [decane] + CCCCC[N+]1(C)CCCCC1.O=S(=O)([N-]S(=O)(=O)C(F)(F)F)C(F)(F)F	29.5 ± 2	27.9 ± 1.9	26.2 ± 1.8	25.1 ± 1.7	23.8 ± 1.6	31.9 ± 2.2
